Test results published in US11458180B2, “Environmentally-friendly preparation method of composition containing anti-inflammatory active ingredients and use of composition” (SHANGHAI JAKA BIOTECH CO., LTD., priority 2019, dated 2022).

System: PGE-2
Assay: Anti-inflammatory effect: LPS-induced PGE-2 expression by ELISA
Format: cell-based, mouse
Settings: LPS 1 μg/ml stimulated Raw 264.7 cells, 10 μM, relative to LPS group
Experimental: In this experiment, Raw 264.7 cells were stimulated by LPS, then cell culture was collected, and the expression of the inflammatory factor PGE-2 was determined by enzyme-linked immunosorbent assay (ELISA). The compositions obtained in the examples and comparative examples were compared in terms of the influence on anti-inflammatory effects. Raw264.7 cells and LPS were used for the experiment.
Raw264.7 cells at logarithmic growth phase were collected as follows: culture medium was discarded, and the cells were washed twice with PBS, added with 0.25% trypsin, and placed at 37° C. for 5 min; digestion was terminated with DMEM complete culture medium including 10% FBS and 1% PS, and a resulting solution was centrifuged at 1,000 rpm for 3 min; and a resulting supernatant was discarded, and obtained cells were resuspended in complete culture medium and counted. A cell concentration was adjusted to 5×10^5 cells/ml, and a resulting cell suspension was added to a 96-well plate at 100 µl/well. […]
After the treatment, cell culture was collected to a new 96-well plate, and the expression of PGE-2 was determined by ELISA according to instructions of a kit. A PGE-2 content (E) was calculated according to a standard curve, and relative to the LPS group, a relative inhibition rate was calculated for each sample (inhibition rate (%)=(1-Etest substance group/ELPS group)×100).

For `C[C@@H]1C[C@H]2[C@@H]3CCC4=CC(=O)C=C[C@]4(C)[C@@]3(F)[C@@H](O)C[C@]2(C)[C@@]1(O)C(=O)CO` [Dex, dexamethasone], the “inhibition rate of PGE-2 expression” value was 75.27%.
